Data as given in patent publication US12036212B2, “Enhancement of tumor response to chemotherapy by activation of the asmase/ceramide pathway through timed administration of a short-acting anti-angiogenic agent” (Memorial Sloan-Kettering Cancer Center, priority 2014, dated 2024).

What was measured:
[1] = test system: ASMase; experiment: ASMase activity radioenzymatic assay in BAEC; assay type: cell-based, bovine
Protocol: (§1) BAEC were established from the intima of bovine aorta as described^1. Stock cultures were grown in 100-mm dishes in Dulbecco's modified Eagle's medium (DMEM) supplemented with glucose (1 g/liter), 5% heat-inactivated calf serum (CS), penicillin (50 units/ml), and streptomycin (50 μg/ml). Purified human recombinant bFGF (1 ng/ml; R&D Systems, Inc., Minneapolis, MN) was added every other day during the exponential growth phase. […] These plateau phase cells were either used for experiments, or further sub-cultured (up to a maximum of 10 times) at a split ratio of 1:8. For sub-culturing, monolayers were dissociated with STV (0.05% trypsin and 0.02% EDTA in PBS) for 2-3 min at 22° C., washed twice in 5% CS-DMEM, and resuspended in DMEM with supplements as above. These mild conditions of trypsinization were sufficient to detach cells but not injure, stimulate, or affect cell function in a detectable way. BAEC were maintained at 37° C. in 10% CO2 humidified incubators.
ASMase activity was quantified by radioenzymatic assay using [^14C-methylcholine]sphingomyelin (Amersham) as substrate as described (Schissel et al. J Biol Chem, 271, 18431-18436, 1996). Cell lysates were incubated with [^14C-methylcholine]-sphingomyelin substrate (0.026 mCi/9.5 nmol) in 250 mM sodium acetate, pH 5.0 supplemented with 0.1% Triton X-100 and 1 mM EDTA or 0.1 mM ZnCl. Reactions were terminated after 1 h with CHCl3:MeOH:1N HCl (100:100:1, v/v/v), and [^14C-methylcholine]phosphocholine product in the aqueous layer of the Folch extract was quantified using a Beckman Packard 2200 CA Tricarb scintillation counter. For detection of ASMase activity in patients, 10 μl of serum was used.
To test the effect of chemotherapy on ASMase signaling and ceramide production, BAEC were treated with paclitaxel (100 nM) and ASMase activity was determined by radioenzymatic assay (Rotolo et al, infra) using [^14C-methylcholine] sphingomyelin (Amersham) as substrate (FIG. 1A). Induction of ASMase activity was observed within 5 minutes after treatment, and the activation continued for 30 minutes. Ceramide generation was monitored using the diacylglycerol kinase assay (Stancevic et al. PLoS ONE 8, e69025, 2013). […] In further support of this, pre-incubation of BAEC with nystatin prior to treatment with chemotherapy inhibits chemotherapy-induced apoptosis (FIG. 3).
(§2) To determine the generality of the results observed, experiments were carried out using an additional endothelial cell line, human coronary artery endothelial cells (HCAEC); experiments were also performed using a different chemotherapeutic agent. […] Next, HCAEC were treated with paclitaxel (100 nM) (data not shown) and etoposide (50 μM) (FIG. 1F), and ceramide generation was evaluated.
To further establish the generality of ASMase activation by various chemotherapeutic agents, BAEC and HCAEC were treated with increasing doses of cisplatin (0.1-50 μM) (data not shown). […] The ASMase/ceramide pathway was activated by chemotherapeutic agents that belong to different classes of chemotherapeutic agents, such as: taxanes, topoisomerase inhibitors, and nucleoside analog metabolic inhibitors. Since such chemotherapy agents are characterized by distinct mechanisms of action in tumor cells, it is surprising that a group of such distinct agents converges on a common molecular (ASMase/ceramide) axis in endothelium. The present confirmation that distinct chemotherapeutic agents activate the ASMase/ceramide pathway permits the present inventors to take into account the results of experiments using single dose radiotherapy, which has been reported to activate the same pathway (Rao, S. S. et al., Axitinib sensitization of high Single Dose Radiotherapy. Radiotherapy and Oncology: Journal of the European Society for Therapeutic Radiology and Oncology 111, 88-93, doi:10.1016/j.radonc.2014.02.010 (2014)).
Gemcitabine was able to activate ASMase in cultured endothelial cells. […]

[2] = test system: ceramide; experiment: Ceramide generation (diacylglycerol kinase assay) in BAEC; assay type: cell-based, bovine; conditions: paclitaxel 100 nM; for Ceramide generation: etoposide 50 μM, cisplatin 0.1-50 μM
Protocol: as §1
After treatment, cells were placed on ice, washed with cold PBS, and lipids were extracted by addition of scraped cells in methanol to an equal volume of chloroform and 0.6 volume of buffered saline/EDTA solution (135 mM NaCl, 4.5 mM KCl, 1.5 mM CaCl2), 0.5 mM MgCl2, 5.6 mM glucose, 10 mM HEPES pH 7.2, 10 mM EDTA). Lipids in the organic phase extract were dried under N2 and subjected to mild alkaline hydrolysis (0.1 N methanolic KOH for 1 hour at 37° C.) to remove glycerophospholipids. Samples were re-extracted, and the organic phase was dried under N2. Ceramide contained in each sample was resuspended in a 100 μl reaction mixture containing 150 μg of cardiolipin, 280 μM diethylenetriaminepentaacetic acid, 51 mM octyl-β-glucopyranoside (Calbiochem), 50 mM NaCl, 51 mM imidazole, 1 mM EDTA, 12.5 mM MgCl2, 2 mM dithiothreitol, 0.7% glycerol, 70 μM β-mercaptoethanol, 1 mM ATP, 10 μCi of [γ-^32P]ATP, 35 μg/ml Escherichia coli diacylglycerol kinase (Calbiochem) at pH 6.5. After 30 minutes at room temperature, the reaction was stopped by extraction of lipids with 1 ml of chloroform:methanol:1 N HCl (100:100:1), 170 μl of buffered saline solution (BSS) (135 mM NaCl, 1.5 mM CaCl2, 0.5 mM MgCl2, 5.6 mM glucose, and 10 mM HEPES (pH 72), and 30 μl of 100 mM EDTA. The lower organic phase was dried under N2. Ceramide-1 phosphate was resolved by thin-layer chromatography on silica gel 60 plates (Whatman) using a solvent system of chloroform:methanol:acetic acid (65:15:5, v/v/v) and detected by autoradiography, and incorporated ^32P was quantified by liquid scintillation counting. The level of ceramide was determined by comparison with a standard curve generated concomitantly of known amounts of ceramide.
To test the effect of chemotherapy on ASMase signaling and ceramide production, BAEC were treated with paclitaxel (100 nM) and ASMase activity was determined by radioenzymatic assay (Rotolo et al, infra) using [^14C-methylcholine] sphingomyelin (Amersham) as substrate (FIG. 1A). […] Ceramide generation was monitored using the diacylglycerol kinase assay (Stancevic et al. PLoS ONE 8, e69025, 2013). […]
as §2, with “evaluated. […]” for “evaluated.”

[3] = test system: ceramide; experiment: Ceramide generation in HCAEC; assay type: cell-based, human; conditions: paclitaxel 100 nM, etoposide 50 μM, cisplatin 0.1-50 μM
Protocol: HCAEC were obtained from Clonetics™ Coronary Artery Endothelial Cell Systems (Cambrex Bio Science Inc.). For HCAEC culturing and sub-culturing Clonetics cell system components were used: EBM®-2, Endothelial Cell Basal Medium-2 with addition of Clonetics EGM-2-MV SingleQuots containing growth supplements (Cambrex) (Biomedical Technologies, Inc.). For sub-culturing, monolayers were dissociated with Clonetics® Trypsin/EDTA solution for 2-3 min at 22° C. at a split ratio of 1:4 to expand the cell population for experiments. HCAEC cultures were maintained at 37° C. in 5% CO2 humidified incubators.
After treatment, cells were placed on ice, washed with cold PBS, and lipids were extracted by addition of scraped cells in methanol to an equal volume of chloroform and 0.6 volume of buffered saline/EDTA solution (135 mM NaCl, 4.5 mM KCl, 1.5 mM CaCl2), 0.5 mM MgCl2, 5.6 mM glucose, 10 mM HEPES pH 7.2, 10 mM EDTA). […] After 30 minutes at room temperature, the reaction was stopped by extraction of lipids with 1 ml of chloroform:methanol:1 N HCl (100:100:1), 170 μl of buffered saline solution (BSS) (135 mM NaCl, 1.5 mM CaCl2, 0.5 mM MgCl2, 5.6 mM glucose, and 10 mM HEPES (pH 72), and 30 μl of 100 mM EDTA. The lower organic phase was dried under N2. Ceramide-1 phosphate was resolved by thin-layer chromatography on silica gel 60 plates (Whatman) using a solvent system of chloroform:methanol:acetic acid (65:15:5, v/v/v) and detected by autoradiography, and incorporated ^32P was quantified by liquid scintillation counting. The level of ceramide was determined by comparison with a standard curve generated concomitantly of known amounts of ceramide.
as §2, with “evaluated. […]” for “evaluated.”

## N.N.[Cl][Pt][Cl] [cisplatin]
[1]; etoposide 50 μM, cisplatin 0.1-50 μM, gemcitabine 100 nM time-course
  ASMase activation: failed to activate ASMase
[2]
  Ceramide generation: failed to activate ASMase and result in generation of ceramide
[3]
  Ceramide generation: failed to activate ASMase and result in generation of ceramide

## CC(=O)O[C@H]1C(=O)[C@@]2(C)[C@H]([C@H](OC(=O)c3ccccc3)[C@]3(O)C[C@H](OC(=O)[C@H](O)[C@@H](NC(=O)c4ccccc4)c4ccccc4)C(C)=C1C3(C)C)[C@]1(OC(C)=O)CO[C@@H]1C[C@@H]2O [paclitaxel]
[1]; paclitaxel 100 nM
  ASMase activation continued for: 30 min
  Induction of ASMase activity, time after treatment: ≤ 5 min
[2]
  Ceramide generation persisted for: 30 min
  Ceramide generation: peaked within minutes
[3]
  Ceramide generation: leads to the generation of ceramide
